{"source": "patent US7052850B2", "about": "“Isolated human EDG-4 receptor” (priority 1997, dated 2006)", "key": {"[1]": {"system": "Human Umbilical Vein Endothelial Cells (HUVEC)", "assay": "IL-8 response in primary cultured HUVEC", "assay_type": "cell-based", "details": "5 μM, 6 hr", "protocol": "Cells: HUVEC (Clonetics, Cat. CC-2519) were passaged according to supplier's instructions and used at passage 3. Cells were plated at 20,000 cells/well into 24-well plates. […] LPA induced a 3-fold IL-8 increase at this concentration. […] As shown below in FIG. 23, three cloned edge receptors respond to LPA as an agonist, and all three appear to transduce NF-κB activation in an agonist-dependent manner."}, "[2]": {"system": "293-EBNA cells", "assay_type": "cell-based", "protocol": "(§1) Transfection of EDG-4, expression, pretreatment and treatment of 293-EBNA cells expressing recombinant human EDG-4 was carried out essentially as described in “Example 11. […] Results were tabulated in Microsoft Excel, and analyzed with GraphPad Prism sotfware. […] The luciferase response was expressed as fold response, after subtracting any endogenous response in pcDNA3-transfected cells at a given concentration of compound."}, "[3]": {"target": "T1, human EDG-4 (Homo sapiens, UniProt O95136, F273L/I205V)", "T1 construct": "a 1059 bp open reading frame (excluding the stop codon) corresponding to the complete human edg-4 coding region; expressed in transfected cells; host or cells: 293-EBNA", "T1 sequence (O95136 whole entry I205V/F273L)": "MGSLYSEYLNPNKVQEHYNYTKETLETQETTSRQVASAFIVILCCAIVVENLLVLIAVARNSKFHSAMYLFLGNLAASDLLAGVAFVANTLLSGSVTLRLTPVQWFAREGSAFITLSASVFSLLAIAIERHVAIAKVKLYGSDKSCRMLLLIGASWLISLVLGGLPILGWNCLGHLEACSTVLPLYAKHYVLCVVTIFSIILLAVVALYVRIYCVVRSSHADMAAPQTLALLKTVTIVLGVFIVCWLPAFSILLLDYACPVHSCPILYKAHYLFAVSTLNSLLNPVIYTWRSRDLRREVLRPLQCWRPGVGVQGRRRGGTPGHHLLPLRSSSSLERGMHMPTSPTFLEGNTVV", "assay": "Relative potency and efficacy of agonists, luciferase (SRE) reporter in 293-EBNA cells expressing recombinant human EDG-4", "assay_type": "cell-based", "details": "for Rank (EMax): rank of efficacy", "protocol": "as §1"}, "[4]": {"system": "HeLa cells", "assay": "IL-8 response (IL-8 ELISA) in HeLa cells", "assay_type": "cell-based, human", "protocol": "• Cells: HeLa (adenocarcinoma, human) • Media: DMEM/F12+10% FBS Adherent • 1) Cells were seeded at 0.2×10^6 cells/well in 6-well plates. • 2) Confluency of cells after 24–32 hrs was between 60–70%. B. Overnight Serum-Starvation • 1) Media was aspirated (no PBS wash). • 2) 1.5 ml 0.5% FBS media was added to each well. C. Treatments and Collection • 1) Made up all required solutions in 0.5% FBS media (control). Handling of […] for use in NF-κB experiments requires that sonication, commonly used to resuspend LPA, not be done; NF-κB may be activated by lipid peroxides created through vigorous frothing. Solutions:\nD. Detection of Interleukin-8 (IL-8) using an IL-8 ELISA (Enzyme-Linked ImmunoSorbent Assay). • 1) The Quantikine Human IL-8 Immuno Assay Kit was obtained from R&D Systems (Cat. D8050). • 2) The kit and all samples were allowed to equlibrate to room temperature prior to use. • 3) All reagents were provided in the kit and prepared according to the instructions provided. • 4) The assay procedure was followed as recommended in the kit for cell culture supernatant samples. • 5) ELISA was performed on 50 μl samples of culture supernatant and duplicate samples were measured for each well. Each treatment was performed on triplicate wells. • 6) Plates were read on UV max kinetic microplate reader (Molecular Devices), set to 450 nm and correction set to 575 nm, using Wsoftmax sotware version 2.34.\n• 1) Cells were seeded at 2.5×10^4 cells/well in 24-well plates. • 2) Confluency of cells after 24–32 hrs was between 60–70%. B. Overnight Serum-Starvation and PTX Pre-Treatment • 1) Media was aspirated (no PBS wash). • 2) 0.5 ml 0.5% FBS media was added to all wells not requiring PTX pre-treatment. • 3) For well requiring PTX; 0.5 ml 0.5% FBS media containing 50 ng/ml PTX (1 volume PTX (RBI Cat. P140): 1 volume DTT, incubate 37° C. for 30 minutes then dilute to 50 ng/ml) was added. C. Treatments and Collection • 1) Made up all required solutions in 0.5% FBS media (control). […] D. Refer to Procedure #1 For HeLa Cells (D)."}, "[5]": {"system": "HeLa cells", "assay": "Cytotoxicity (viable cell count at 24 hr) in HeLa cells", "details": "NDGA 40 μM", "method": "For this purpose, an experiment was conducted to measure cytotoxicity in parallel with IL-8 response."}, "[6]": {"system": "HL-60 cells", "assay": "IL-8 response in HL-60 cells", "assay_type": "cell-based, human", "details": "1, 6 or 24 hours, S1P or LPA up to 3 μM, TNF-α 10 ng/ml"}, "[7]": {"target": "rat EDG-4 (Rattus norvegicus, UniProt P47752)", "sequence (P47752 whole entry)": "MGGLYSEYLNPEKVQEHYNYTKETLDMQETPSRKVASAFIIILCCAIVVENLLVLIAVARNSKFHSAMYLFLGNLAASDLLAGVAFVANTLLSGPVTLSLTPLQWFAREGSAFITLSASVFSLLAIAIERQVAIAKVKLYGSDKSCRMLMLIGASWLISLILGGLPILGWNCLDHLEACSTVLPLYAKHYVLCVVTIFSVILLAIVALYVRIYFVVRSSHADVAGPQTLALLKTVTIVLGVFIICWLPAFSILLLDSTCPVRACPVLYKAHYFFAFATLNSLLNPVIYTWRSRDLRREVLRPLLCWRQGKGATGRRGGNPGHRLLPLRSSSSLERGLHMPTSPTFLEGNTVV", "assay": "NF-κB-tk-p4Luc luciferase reporter in 293-EBNA cells, rat EDG-4", "assay_type": "cell-based", "set-up": "transient transfection with a eukaryotic expression vector expressing full-length rat edg-4 cDNA; expressed in transfected cells; host or cells: 293-EBNA", "details": "Assay 1; 24 hrs", "from_the_text": "First, the NF-κB response element was reconstructed in a new reporter construct (p4Luc) suitable for stable maintenance as an episome in primate cells. […] The p4-Luc reporter used the backbone of pREP4 (Invitrogen; Cat. V004-50), which contains the EBV orgin of replicaiton (EBVoni), as well as the EBNA-1 viral antigen required to maintain EBVoti containing plasmids as stable episoms in primate cells, and a prokayotic selection marker. A dominant eukaryotic selection marker for zeocin resistance was substituted for expression in pREP4. The promoter of pREP4 was then excised and replaced with a multi-cloning site for introduction of promoter/enhancer inserts. The NF-κB inser of the previous CAT reporter was subcloned into this site and all cloning junctions were sequenced to verify the structure of the plasmid, called NF-κB-tk-p4Luc.\n• 1) 150 mm plates of 293-EBNA obtained from Invitrogen (Cat. R620-07) with a confluency of 18 80% were used for transfection. • 2) 6.6 μg NF-κB-tk-p4Luc reporter DNA and 6.6 μg of pC3-redg4 (expressing rat EDG-4), or pcDNA3 DNA was diluted in 500 μl OPTI-MEM (Gibco; Cat. 31985-062) • 3) 96.8 μl Lipofectamine (Gibco; Cat. 18324-020) was diluted in 500 μl of OPTI-MEM. • 4) The 2 solutions were mixed gently and the tube was incubated for 30 min at room temperature. • 5) The 293-EBNA plates were washed once with PBS and 13 ml OPTI-MEM was added to each plate, • 6) 6 ml OPTI-UMM was added to each transfection tube and this was added to a plate of 293EBNA cells. The plates were left for 4 hrs at 37° C. in a 5% CO2 incubator. • 7) After 4 his, the media was removed and replaced with frest 10% FBS media. Day 2: • 1) Transfected cells were washed, typsinized with 1× tryspin, resuspended in 10 ml media and counted. • 2) 0.02×10 ^6 cells were plated per well of a 96-well Blackview plate coated with polyD-lysine. No cells were plated in the outside wells of the 96-well plate. Two 96-well plates were seeded for each transfection. Day 3: • 1) Cells were washed with PBS and 140 μl serum-free media (SFM) added to each well. Plates were incubated in 37° C. incubator for 6 hrs. • 2) After 6 hrs, media was removed and cells treated with compounds diluted in 0.5% FBS media (140 μl added to each well).\nDay 4 Luciferase Assay • 1) Luclite kit (Packard; Cat. 6016911) was used for luciferase assay. All reagents were brought to room temperature before use. • 2) Supernatant was transferred to a new 96-well plate and stored at −20 C. for rupture IL-8 measurement. • 3) 50 μl 0.5 M HEPES pH 7.8 buffer (1 mM MgCl21 mM CaCl2) was addeded to all wells of 96-well plate. Black adhesive backing (polyfitronics) was aligned to the bottom of the viewplate. • 4) Luclite substrate was made up by adding 10 ml substate diluent to 1 vial lyophilized substrate. Reconstituted substrate was kept under a dark container. 50 μl substrate was added to each well. • 5) A clear adhesive plate sealer was adjusted on to the viewplate and sealer rubbed over the plate with a Kimwipe. The plate was shaken on a plate shaker at 500 rpm for 5 seconds right side up and then upside down. A stop plate was placed on top of the blackview plate to keep it in the dark. • 6) Plates were incubated at room temperature for 30 min. • 7) After incubation, plates were counted in a 12 detector Packard Top Count on a program without dark delay."}, "[8]": {"details": "S1P 1 μM, NDGA 40 or 10 μM, NAC 30 mM, 30 minute pre-treatment"}}, "data": [{"molecule": "CCCCCCCCCCCCC/C=C/[C@@H](O)[C@@H](N)CO[C@@H]1O[C@H](CO)[C@H](O)[C@H](O)[C@H]1O", "note": "[Psychosine, psychosine]", "values": [{"measurement": "IL-8 levels, increase over untreated controls", "setting": "[1]", "result": "Marginal increases"}, {"measurement": "concentration at which cytotoxicity was seen", "setting": "[2]", "result": "^aCytotoxicity was seen at 10 μM or higher concentrations, preventing quantitative determination of EC50 or EMax"}, {"measurement": "agonist character at EDG-4", "setting": "[3]", "result": "poor potency and efficacy"}, {"measurement": "Rank (EMax)", "setting": "[3]", "result": 5}]}, {"molecule": "CC(=O)N[C@@H](CS)C(=O)O", "note": "[NAC]", "values": [{"measurement": "inhibition of IL-8 response to S1P", "setting": "[4]; [8]", "result": "significantly inhibited"}]}, {"molecule": "CCCCC/C=C\\C/C=C\\C/C=C\\C/C=C\\CCCC(=O)NCCO", "note": "[anandamide]", "values": [{"measurement": "IL-8 levels, increase over untreated controls", "setting": "[1]", "result": "no responses"}]}, {"molecule": "CCCCCCCCCCCCC/C=C/[C@@H](O)C(N)CO[C@@H]1O[C@H](CO)[C@@H](O)[C@H](O)[C@@H]1O", "note": "(stereo partly shown) [Glucospychosin, glucopsychosine]", "values": [{"measurement": "concentration at which cytotoxicity was seen", "setting": "[2]", "result": "^aCytotoxicity was seen at 10 μM or higher concentrations, preventing quantitative determination of EC50 or EMax"}, {"measurement": "agonist character at EDG-4", "setting": "[3]", "result": "poor potency and efficacy"}, {"measurement": "Rank (EMax)", "setting": "[3]", "result": 4}]}, {"molecule": "CC(Cc1ccc(O)c(O)c1)C(C)Cc1ccc(O)c(O)c1", "note": "(stereo not shown) [NDGA]", "values": [{"measurement": "inhibition of IL-8 response to S1P", "setting": "[4]; S1P 1 μM, NDGA 40 μM", "result": "completely inhibited"}, {"measurement": "inhibition of IL-8 response to S1P", "setting": "[4]; [8]", "result": "significantly inhibited"}, {"measurement": "toxicity", "setting": "[5]", "result": "some toxicity"}]}, {"molecule": "CCCCCCCCCCCCC/C=C/[C@@H](O)[C@@H](N)CO", "note": "[sphingosine]", "values": [{"measurement": "IL-8 induction", "setting": "[4]; 6 hours, concentration series", "result": "lack of response"}]}, {"molecule": "Cc1ccc(C(=O)Nc2ccc(S(=O)(=O)O)c3cc(S(=O)(=O)O)cc(S(=O)(=O)O)c23)cc1NC(=O)c1cccc(NC(=O)Nc2cccc(C(=O)Nc3cc(C(=O)Nc4ccc(S(=O)(=O)O)c5cc(S(=O)(=O)O)cc(S(=O)(=O)O)c45)ccc3C)c2)c1", "note": "[Suramin]", "values": [{"measurement": "inhibition of IL-8 response to edelfosine", "setting": "[4]; ET-18-OCH3 3 μM, PTX 50 ng/ml or suramin 1 mg/ml", "result": "potently inhibited"}, {"measurement": "effect on IL-8 response to S1P", "setting": "[4]; S1P 1 μM, suramin 1 mg/ml, 30 minute pre-treatment", "result": "extremely effective in blunting the IL-8 response to S1P"}]}, {"molecule": "TNF-α", "values": [{"measurement": "IL-8 release", "setting": "[6]", "result": "capable of responding at 6 or 24 hr"}]}, {"molecule": "CCCCCCCCCCCCCC(=O)O[C@@H]1[C@@H](C)[C@@]2(O)[C@@H](C=C(CO)C[C@]3(O)C(=O)C(C)=C[C@@H]23)[C@H]2C(C)(C)[C@]12OC(C)=O", "note": "[TPA]", "values": [{"measurement": "induction of NF-κB reporter", "setting": "[7]", "result": "strongly induced"}]}, {"molecule": "CCCCCCCCCCCCCCC[C@@H](O)[C@@H](N)COP(=O)(O)O", "note": "[Dihydro-S1P, dihydrosphingosine 1-phosphate]", "values": [{"measurement": "agonist character at EDG-4", "setting": "[3]", "result": "partial agonist"}, {"measurement": "Rank (EMax)", "setting": "[3]", "result": 3}]}]}
